{"source": "patent US20030194434A1", "about": "“Bubbling tablet, bubbling bath additive tablet, bubbling washing detergent tablet, bubbling tablet for oral administration, and process for producing these” (priority 2000, published 2003)", "assay": "Kinetic viscosity of saccharide solution, Ubbelohde viscosimeter, Japanese Pharmacopoeia 13th edition", "assay_type": "physicochemical", "details": "0.5 g of component dissolved in 50 ml of water (25° C.)", "method": "The value shown after each component in parenthesis is the kinetic viscosity of the solution in which 0.5 g of each component is dissolved in 50 ml of water (25° C.)."}
{"smiles": "OC[C@@H](O)[C@@H](O)[C@H](O)[C@@H](O)CO", "note": "[sorbitol]", "values": [{"measurement": "kinetic viscosity", "result": 0.897, "unit": "cSt"}]}
{"smiles": "OC[C@@H](O)[C@@H](O)[C@H](O)[C@H](O)CO", "note": "[mannitol]", "values": [{"measurement": "kinetic viscosity", "result": 0.896, "unit": "cSt"}]}
{"smiles": "OC[C@@H](O)[C@@H](O[C@H]1O[C@H](CO)[C@@H](O)[C@H](O)[C@H]1O)[C@H](O)[C@@H](O)CO", "note": "[maltitol]", "values": [{"measurement": "kinetic viscosity", "result": 0.904, "unit": "cSt"}]}
{"smiles": "OC[C@@H](O)[C@H](O)[C@@H](O)CO", "note": "[xylitol]", "values": [{"measurement": "kinetic viscosity", "result": 0.904, "unit": "cSt"}]}
{"smiles": "OC[C@H]1O[C@@](CO)(O[C@H]2O[C@H](CO)[C@@H](O)[C@H](O)[C@H]2O)[C@@H](O)[C@@H]1O", "note": "[sucrose]", "values": [{"measurement": "kinetic viscosity", "result": 0.912, "unit": "cSt"}]}
{"smiles": "OC[C@H]1O[C@H](O[C@H]2O[C@H](CO)[C@@H](O)[C@H](O)[C@H]2O)[C@H](O)[C@@H](O)[C@@H]1O", "note": "[trehalose]", "values": [{"measurement": "kinetic viscosity", "result": 0.891, "unit": "cSt"}]}
